Experiments:
[1] = molecular target: T1, Recombinant human c-Cbl (aa 47-435) (Homo sapiens, UniProt P22681); assay: c-Cbl Biochemical Assay (TR-FRET); details: hc-Cbl Biochemical Assay (TR-FRET); read-out: TR-FRET hcCbl IC50
T1 sequence (P22681 47-435): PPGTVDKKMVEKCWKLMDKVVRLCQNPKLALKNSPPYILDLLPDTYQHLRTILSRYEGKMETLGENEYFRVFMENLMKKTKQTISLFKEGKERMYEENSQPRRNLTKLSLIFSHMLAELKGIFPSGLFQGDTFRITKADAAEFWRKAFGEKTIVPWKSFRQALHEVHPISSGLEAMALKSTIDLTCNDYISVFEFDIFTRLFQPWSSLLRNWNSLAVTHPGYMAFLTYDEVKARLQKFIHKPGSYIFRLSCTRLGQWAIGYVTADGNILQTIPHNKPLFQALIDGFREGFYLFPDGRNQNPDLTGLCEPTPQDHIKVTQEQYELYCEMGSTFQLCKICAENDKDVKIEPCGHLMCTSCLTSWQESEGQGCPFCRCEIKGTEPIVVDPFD

[2] = molecular target: Recombinant human Cbl-b (aa 36-427) (Homo sapiens, UniProt Q13191); assay: Cbl-b Biochemical Assay (TR-FRET); details: read-out: TR-FRET hCbl-b IC50
Chain of Recombinant human Cbl-b (aa 36-427) (Q13191 36-427): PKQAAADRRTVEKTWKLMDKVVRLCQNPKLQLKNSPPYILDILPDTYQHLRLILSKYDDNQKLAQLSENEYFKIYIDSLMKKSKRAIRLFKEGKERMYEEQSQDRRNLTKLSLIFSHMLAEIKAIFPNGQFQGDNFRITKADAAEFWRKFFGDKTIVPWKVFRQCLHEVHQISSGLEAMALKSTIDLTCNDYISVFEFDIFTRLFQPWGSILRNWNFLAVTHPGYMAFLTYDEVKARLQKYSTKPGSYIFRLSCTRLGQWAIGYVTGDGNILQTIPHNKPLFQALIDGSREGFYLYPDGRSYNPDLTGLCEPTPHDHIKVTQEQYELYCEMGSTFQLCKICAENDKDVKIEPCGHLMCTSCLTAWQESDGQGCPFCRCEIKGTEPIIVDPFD

[3] = tested on: Jurkat (clone E6-1) cells with NFAT luciferase reporter; assay: Jurkat reporter assay (NFAT Luciferase); type: cell-based; details: Homo sapiens; Jurkat NFAT luciferase reporter cells, anti-CD3 stimulation, 6 hr; read-out: Jurkat NFAT EC50

Row | Structure (SMILES) | IC50 [1] | IC50 [2] | EC50 [3]
1 | COCCNCc1cc(OC)c2oc(-c3cccc(-c4ccc(F)cc4-c4nncn4C)c3)nc2c1 [EL-1, N-((2-(4′-Fluoro-2′-(4-methyl-4H-1,2,4-triazol-3-yl)-[1,1′-biphenyl]-3-yl)-7-methoxybenzo[d]oxazol-5-yl)methyl)-2-methoxyethan-1-amine] | < 200 nM | < 200 nM | 200 to 1000 nM
2 | Cn1cnnc1-c1cc(Cl)ccc1-c1cc(-c2nc3cc(CNCC4(O)CCC4)cc(F)c3o2)nc(C2CC2)c1 [AHI-5, 1-({[(2-{4-[4-chloro-2-(4-methyl-1,2,4-triazol-3-yl)phenyl]-6-cyclopropylpyridin-2-yl}-7-fluoro-1,3-benzoxazol-5-yl)methyl]amino}methyl)cyclobutan-1-ol] | < 200 nM | < 200 nM | < 200 nM
3 | Cn1cnnc1-c1cc(F)ccc1-c1cccc(-c2nc3cc(CN[C@@H]4COC[C@@H]4O)cc(C(F)(F)F)c3o2)c1 [DH-2, (3R,4R)-4-(((2-(4′-Fluoro-2′-(4-methyl-4H-1,2,4-triazol-3-yl)-[1,1′-biphenyl]-3-yl)-7-(trifluoromethyl)benzo[d]oxazol-5-yl)methyl)amino)tetrahydrofuran-3-ol] | < 200 nM | < 200 nM | < 200 nM
4 | CCOCCNCc1cc(OC)c2oc(-c3cccc(-c4ccc(F)cc4-c4nncn4C)c3)nc2c1 [GD-1, 2-Ethoxy-N-((2-(4′-fluoro-2′-(4-methyl-4H-1,2,4-triazol-3-yl)-[1,1′-biphenyl]-3-yl)-7-methoxybenzo[d]oxazol-5-yl)methyl)ethan-1-amine] | 200 to 1000 nM | < 200 nM | 200 to 1000 nM
5 | Cn1cnnc1-c1cc(F)ccc1-c1cccc(-c2cn3cc(CO)ccc3n2)c1 [FZ-5, (2-(4′-Fluoro-2′-(4-methyl-4H-1,2,4-triazol-3-yl)-[1,1′-biphenyl]-3-yl)imidazo[1,2-a]pyridin-6-yl)methanol] | 10000 to 50000 nM | 1000 to 10000 nM | 10000 to 50000 nM
6 | Cn1cnnc1-c1cc(F)ccc1-c1cc(-c2nc3cc(CO)ccc3o2)nc(C2CC2)c1 [ADQ-1, (2-{6-Cyclopropyl-4-[4-fluoro-2-(4-methyl-1,2,4-triazol-3-yl)phenyl]pyridin-2-yl}-1,3-benzoxazol-5-yl)MeOH] | 1000 to 10000 nM | 1000 to 10000 nM | 10000 to 50000 nM
7 | Cn1cnnc1-c1cc(F)ccc1-c1cccc(-c2nc3cc(CNCCC(F)F)cc(C(F)(F)F)c3o2)c1 [EW-2, 3,3-Difluoro-N-((2-(4′-fluoro-2′-(4-methyl-4H-1,2,4-triazol-3-yl)-[1,1′-biphenyl]-3-yl)-7-(trifluoromethyl)benzo[d]oxazol-5-yl)methyl)propan-1-amine] | < 200 nM | < 200 nM | < 200 nM
8 | Cn1cnnc1-c1cc(Cl)ccc1-c1cccc(-c2nc3cc(CN[C@@H]4CCC[C@@H]4O)ccc3o2)c1 [ADL-2, (1S,2R)-2-[({2-[4′-Chloro-2′-(4-methyl-1,2,4-triazol-3-yl)-[1,1′-biphenyl]-3-yl]-1,3-benzoxazol-5-yl}methyl)amino]cyclopentan-1-ol] | < 200 nM | < 200 nM | < 200 nM
9 | Cn1cnnc1-c1cc(F)ccc1-c1cccc(-c2nc3cc(CN4CC(C)(O)C4)cc(C(F)(F)F)c3o2)c1 [AF-2, 1-((2-(4′-Fluoro-2′-(4-methyl-4H-1,2,4-triazol-3-yl)-[1,1′-biphenyl]-3-yl)-7-(trifluoromethyl)benzo[d]oxazol-5-yl)methyl)-3-methylazetidin-3-ol] | 1000 to 10000 nM | < 200 nM | 200 to 1000 nM
10 | Cn1cnnc1-c1cc(Cl)ccc1-c1cc(-c2nc3cc(CNCC4(O)CCC4)ccc3o2)nc(C2CC2)c1 [ADT-12, 1-({[(2-{4-[4-Chloro-2-(4-methyl-1,2,4-triazol-3-yl)phenyl]-6-cyclopropylpyridin-2-yl}-1,3-benzoxazol-5-yl)methyl]amino}methyl)cyclobutan-1-ol] | < 200 nM | < 200 nM | < 200 nM
11 | Cn1cnnc1-c1cc(C#N)ccc1-c1cccc(-c2nc3cc(CN[C@@H]4CCC[C@@H]4O)cc(C(F)(F)F)c3[nH]2)c1 [AAW-5, 3′-(5-((((1R,2S)-2-Hydroxycyclopentyl)amino)methyl)-7-(trifluoromethyl)-1H-benzo[d]imidazol-2-yl)-2-(4-methyl-4H-1,2,4-triazol-3-yl)-[1,1′-biphenyl]-4-carbonitrile] | 1000 to 10000 nM | < 200 nM | 200 to 1000 nM
12 | COc1cc(CNCCOC(C)C)cc2nc(-c3cccc(-c4ccc(F)cc4-c4nncn4C)c3)oc12 [GE-2, N-((2-(4′-Fluoro-2′-(4-methyl-4H-1,2,4-triazol-3-yl)-[1,1′-biphenyl]-3-yl)-7-methoxybenzo[d]oxazol-5-yl)methyl)-2-isopropoxyethan-1-amine, formic Acid] | 200 to 1000 nM | < 200 nM | 1000 to 10000 nM
13 | Cn1cnnc1-c1cc(F)ccc1-c1cccc(-c2nc3ccc(CN[C@@H]4CCC[C@@H]4O)cc3s2)c1 [EK-5, (1S,2R)-2-(((2-(4′-Fluoro-2′-(4-methyl-4H-1,2,4-triazol-3-yl)-[1,1′-biphenyl]-3-yl)benzo[d]thiazol-6-yl)methyl)amino)cyclopentan-1-ol] | 1000 to 10000 nM | 1000 to 10000 nM | 1000 to 10000 nM
14 | Cn1cnnc1-c1cc(F)ccc1-c1cccc(-c2nc3cc(CNCC(C)(C)F)cc(C(F)(F)F)c3[nH]2)c1 [CD-2, 2-Fluoro-N-((2-(4′-fluoro-2′-(4-methyl-4H-1,2,4-triazol-3-yl)-[1,1′-biphenyl]-3-yl)-7-(trifluoromethyl)-1H-benzo[d]imidazol-5-yl)methyl)-2-methylpropan-1-amine, Formic Acid] | 1000 to 10000 nM | < 200 nM | 200 to 1000 nM
15 | CC(=O)NCc1cc(C(F)(F)F)c2oc(-c3cccc(-c4ccc(F)cc4-c4nncn4C)c3)nc2c1 [II-1, N-((2-(4′-Fluoro-2′-(4-methyl-4H-1,2,4-triazol-3-yl)-[1,1′-biphenyl]-3-yl)-7-(trifluoromethyl)benzo[d]oxazol-5-yl)methyl)acetamide] | 200 to 1000 nM | 1000 to 10000 nM | 1000 to 10000 nM
16 | Cn1cnnc1-c1cc(F)ccc1-c1cccc(-c2nc3cc(CN4CCC5(CC4)CC5)cc(C(F)(F)F)c3[nH]2)c1 [BU-1, 5-((6-Azaspiro[2.5]octan-6-yl)methyl)-2-(4′-fluoro-2′-(4-methyl-4H-1,2,4-triazol-3-yl)-[1,1′-biphenyl]-3-yl)-7-(trifluoromethyl)-1H-benzo[d]imidazole] | 1000 to 10000 nM | < 200 nM | 200 to 1000 nM
17 | Cc1cc(CN(C)[C@@H]2CCC[C@@H]2O)cc2nc(-c3cccc(-c4ccc(F)cc4-c4nncn4C)c3)oc12 [HY-3, (1S,2R)-2-(((2-(4′-Fluoro-2′-(4-methyl-4H-1,2,4-triazol-3-yl)-[1,1′-biphenyl]-3-yl)-7-methylbenzo[d]oxazol-5-yl)methyl)(methyl)amino)cyclopentan-1-ol] | < 200 nM | < 200 nM | 200 to 1000 nM
18 | Cn1cnnc1-c1cc(F)ccc1-c1cccc(-c2nc3cc(CO)cc(C(F)F)c3o2)c1 [EX-6, (7-(Difluoromethyl)-2-(4′-fluoro-2′-(4-methyl-4H-1,2,4-triazol-3-yl)-[1,1′-biphenyl]-3-yl)benzo[d]oxazol-5-yl)methanol] | 200 to 1000 nM | 200 to 1000 nM | 1000 to 10000 nM
19 | COc1cc(CO)cc2nc(-c3cc(-c4ccc(F)cc4-c4nncn4C)cc(C4CC4)n3)oc12 [AEX-2, (2-{6-Cyclopropyl-4-[4-fluoro-2-(4-methyl-1,2,4-triazol-3-yl)phenyl]pyridin-2-yl}-7-methoxy-1,3-benzoxazol-5-yl)methanol] | 1000 to 10000 nM | 200 to 1000 nM | 1000 to 10000 nM
20 | COC[C@@H](C)NCc1cc(C(F)(F)F)c2oc(-c3cccc(-c4ccc(F)cc4-c4nncn4C)c3)nc2c1 [EN-2, (R)—N-((2-(4′-Fluoro-2′-(4-methyl-4H-1,2,4-triazol-3-yl)-[1,1′-biphenyl]-3-yl)-7-(trifluoromethyl)benzo[d]oxazol-5-yl)methyl)-1-methoxypropan-2-amine] | 200 to 1000 nM | < 200 nM | 200 to 1000 nM
21 | Cn1cnnc1-c1cc(F)ccc1-c1cccc(-c2nc3cc(CN4CCCC[C@H]4CO)cc(C(F)(F)F)c3o2)c1 [JB-2, (S)-(1-((2-(4′-Fluoro-2′-(4-methyl-4H-1,2,4-triazol-3-yl)-[1,1′-biphenyl]-3-yl)-7-(trifluoromethyl)benzo[d]oxazol-5-yl)methyl)piperidin-2-yl)methanol] | 1000 to 10000 nM | < 200 nM | 1000 to 10000 nM
22 | COC(=O)c1cc2nc(-c3cc(-c4ccc(F)cc4-c4nncn4C)cc(C4CC4)n3)oc2c(F)c1F [AFW-1, Methyl 2-{6-cyclopropyl-4-[4-fluoro-2-(4-methyl-1,2,4-triazol-3-yl)phenyl]pyridin-2-yl}-6,7-difluoro-1,3-benzoxazole-5-carboxylate] | 1000 to 10000 nM | 1000 to 10000 nM | 1000 to 10000 nM
23 | C[C@H](O)CNCc1cc(C(F)(F)F)c2oc(-c3cccc(-c4ccc(F)cc4-c4nncn4C)c3)nc2c1 [AM-2, (S)-1-(((2-(4′-Fluoro-2′-(4-methyl-4H-1,2,4-triazol-3-yl)-[1,1′-biphenyl]-3-yl)-7-(trifluoromethyl)benzo[d]oxazol-5-yl)methyl)amino)propan-2-ol] | 1000 to 10000 nM | < 200 nM | 200 to 1000 nM
